{
  "source": "patent US7183257B2",
  "about": "“Use of RPL41 to treat infections and inhibit cancer” (priority 2004, dated 2007)",
  "key": {"[1]": {"system": "24 tumor cell lines of various tissue types (ATCC)", "type": "cell-based"}, "[2]": {"experiment": "Isoelectric point of peptide", "type": "physicochemical"}, "[3]": {"system": "five tumor cell lines (HTB72, CRL1435, CRL5800, HCT116, MCF7)", "experiment": "Caspase inhibitor z-VAD.fmk with RPL41 (morphology and Δψm assays)", "type": "cell-based", "settings": "Z-VAD.fmk 50 μM with RPL41 6.7 μM, 8 hours", "procedure": "FIG. 10—RPL41 induced cell death is caspase independent. […].\n. The cell death induced by RPL41, therefore, is likely to be caspase-independent. A broad-spectrum caspase inhibitor z-VAD.fmk was also incubated with five tumor cell lines, in the presence of RPL41, to determine whether the inhibition of caspases will attenuate RPL41 induced cell death. […]"}},
  "note": "Peptide text beside a SMILES is read from it. * marks the point of attachment. Cbz = O=C(OCc1ccccc1)*; CH2F = FC*",
  "data": [
    {"compound": "NH2-KARMRMKRKLRKRMRKRQRSRKWKR-OH (H-KARMRMKRKLRKRMRKRQRSRKWKR-OH)", "values": [
      {"measurement": "inhibition effect on tumor cell growth after pre-treatment of peptide with proteases", "setting": "[1]; peptides pre-treated with proteases (DIGEST-ALL, Zymed)", "result": "completely abolished"}
    ]},
    {"compound": "MLISSGLKDGIRSGI [control peptide unrelated to RPL41]", "values": [
      {"measurement": "pI", "setting": "[2]", "result": 8.5},
      {"measurement": "effect on tumor cell growth", "setting": "[1]; concentration ten times higher than that of RPL41", "result": "no effect on tumor cell growth"}
    ]},
    {"compound": "COC(=O)C[C@H](NC(=O)[C@H](C)NC(=O)[C@@H](NC(=O)OCc1ccccc1)C(C)C)C(=O)CF", "note": "[z-VAD.fmk] (Cbz-Val-Ala-Asp(OMe)-CH2F)", "values": [
      {"measurement": "suppression of RPL41 induced cell death", "setting": "[3]", "result": "failed to suppress the RPL41 induced cell death"}
    ]}
  ]
}
